Reference: ChEMBL document CHEMBL5244235, “Diarylpentanoids with antitumor activity: A critical review of structure-activity relationship studies” (Eur J Med Chem, 2020)
Values belong to the compound of their own block, whether it stands above or below them.

Legend:
[1] = Antiproliferative activity against human SH-10-TC cells assessed as cell growth inhibition by MTT assay; type: functional, cell-based
[2] = Antiproliferative activity against human KATO III stomach cancer cell line assessed as cell growth inhibition by MTT assay; type: functional, cell-based
GCIY = assay: Antiproliferative activity against human GCIY cells assessed as cell growth inhibition by MTT assay; type: functional, cell-based
[3] = Antiproliferative activity against human H-111-TC cells assessed as cell growth inhibition by MTT assay; type: functional, cell-based
LS174T = assay: Antiproliferative activity against human LS174T cells assessed as cell growth inhibition by MTT assay; type: functional, cell-based
HUVEC [4] = assay: Anti-angiogenesis activity in HUVEC cells; type: functional, cell-based; settings: Homo sapiens
HeLa = assay: Antiproliferative activity against human HeLa cells assessed as cell growth inhibition measured after 72 hrs by MTT assay; type: functional, cell-based; settings: Homo sapiens, HeLa, 72 h
Ca-Ski = assay: Antiproliferative activity against human Ca-Ski cells assessed as cell growth inhibition measured after 72 hrs by MTT assay; type: functional, cell-based
[5] = test system: Panel renal (Carcinoma cell lines); assay: Antiproliferative activity against human Panel renal (Carcinoma cell lines) assessed as cell growth inhibition measured after 72 hrs by neutral red assay; type: functional
MDA-MB-231 = assay: Antiproliferative activity against human MDA-MB-231 cells assessed as cell growth inhibition measured after 72 hrs by neutral red assay; type: functional
[6] = test system: Panel ovarian (Carcinoma cell lines); assay: Antiproliferative activity against human Panel ovarian (Carcinoma cell lines) assessed as cell growth inhibition measured after 72 hrs by neutral red assay; type: functional
[7] = test system: Panel breast (Carcinoma cell lines); assay: Antiproliferative activity against human Panel breast (Carcinoma cell lines) assessed as cell growth inhibition measured after 72 hrs by neutral red assay; type: functional
RPMI-7951 = assay: Antiproliferative activity against human RPMI-7951 cells assessed as cell growth inhibition measured after 72 hrs by neutral red assay; type: functional
[8] = test system: Panel leukemia (Carcinoma cell lines); assay: Antiproliferative activity against human Panel leukemia (Carcinoma cell lines) assessed as cell growth inhibition measured after 72 hrs by neutral red assay; type: functional
SVR = assay: Anti-angiogenesis activity in mouse SVR cells assessed as cell growth inhibition; type: functional, cell-based
NSCLC = assay: Antiproliferative activity against human NSCLC cells assessed as cell growth inhibition measured after 72 hrs by neutral red assay; type: functional
[9] = Anti-angiogenesis activity in […] MS-1 cells assessed as cell growth inhibition; type: functional, cell-based
HUVEC [10] = assay: Anti-angiogenesis activity in HUVEC cells assessed as cell growth inhibition; type: functional, cell-based; settings: Homo sapiens
[11] = test system: Panel melanoma (Carcinoma cell lines); assay: Antiproliferative activity against human Panel melanoma (Carcinoma cell lines) assessed as cell growth inhibition measured after 72 hrs by neutral red assay; type: functional
[12] = test system: Panel prostate (Carcinoma cell lines); assay: Antiproliferative activity against human Panel prostate (Carcinoma cell lines) assessed as cell growth inhibition measured after 72 hrs by neutral red assay; type: functional
[13] = test system: Panel colon (Carcinoma cell lines); assay: Antiproliferative activity against human Panel colon (Carcinoma cell lines) assessed as cell growth inhibition measured after 72 hrs by neutral red assay; type: functional
[14] = test system: Panel CNS (Carcinoma cell lines); assay: Antiproliferative activity against human Panel CNS (Carcinoma cell lines) assessed as cell growth inhibition measured after 72 hrs by neutral red assay; type: functional
[15] = Antiproliferative activity against human Panel NCI-58 (58 carcinoma cell lines) assessed as cell growth inhibition; type: functional
[16] = Cytotoxicity activity against mouse SVR cells assessed as cell growth inhibition at 6 ug/ml relative to control; type: toxicity, cell-based; settings: at 6 µg/mL
[17] = Cytotoxicity activity against mouse SVR cells assessed as cell growth inhibition at 3 ug/ml relative to control; type: toxicity, cell-based; settings: at 3 µg/mL
HT-29 = assay: Antiproliferative activity against human HT-29 cells assessed as cell viability measured after 24 hrs by XTT assay; type: functional, cell-based; settings: HT-29, 24 h
HCT-116 [18] = assay: Antiproliferative activity against human HCT-116 cells assessed as cell viability measured after 24 hrs by XTT assay; type: functional, cell-based; settings: HCT-116, 24 h
L1210 = assay: Antiproliferative activity against mouse L1210 cells assessed as inhibition of cell growth; type: functional, cell-based
B16 = assay: Antiproliferative activity against mouse B16 cells assessed as cell growth inhibition; type: functional, cell-based
U-937 = assay: Antiproliferative activity against human U-937 cells assessed as cell viability by WST-1 assay; type: functional, cell-based
Jurkat E6.1 = assay: Antiproliferative activity against human Jurkat E6.1 cells assessed as cell viability by WST-1 assay; type: functional, cell-based
HCT-116 [19] = assay: Antiproliferative activity against human HCT-116 cells assessed as cell viability by WST-1 assay; type: functional, cell-based
SAOS-2 = assay: Antiproliferative activity against human SAOS-2 cells assessed as cell viability by WST-1 assay; type: functional, cell-based
A549 = assay: Antiproliferative activity against human A549 cells assessed as cell growth inhibition measured after 48 hrs by MTT assay; type: functional, cell-based; settings: A549, 48 h
NCI-H460 = assay: Antiproliferative activity against human NCI-H460 cells assessed as cell growth inhibition measured after 48 hrs by MTT assay; type: functional, cell-based; settings: NCI-H460, 48 h

Compound: CCOc1cc(/C=C2\CN(C)C/C(=C\c3ccc(O)c(OCC)c3)C2=O)ccc1O
GI50 [15]: 1400 nM

Compound: O=C1/C(=C/c2ccccn2)CCC/C1=C\c1ccccn1
inhibition at 6 ug/ml [16]: 96% | inhibition at 3 ug/ml [17]: 90.1%

Compound: CN1C/C(=C\c2ccccn2)C(=O)/C(=C/c2ccccn2)C1
IC50 (HT-29): 620 nM | IC50 (HCT-116 [18]): 620 nM

Compound: O=C1/C(=C/c2ccccc2F)CCC/C1=C\c1ccccc1F
IC50 (A549): 30.5 µM | IC50 (NCI-H460): 28.7 µM

Second part, led by results:

EC50 (HeLa): 1030 nM
Compound: COc1cc(/C=C/C(=O)/C=C/c2ccc(O)c(OC)c2)ccc1O
IC50 [1]: 3.28 µM | IC50 [2]: 5.98 µM | IC50 (GCIY): 7.32 µM | IC50 [3]: 3.67 µM | IC50 (LS174T): 3.7 µM | IC50 (HUVEC [4]): 400 nM | EC50 (Ca-Ski): 1030 nM

GI50 [5]: 1600 nM | GI50 (MDA-MB-231): 1600 nM | GI50 [6]: 1600 nM | GI50 [7]: 1600 nM | GI50 [8]: 1600 nM | GI50 [11]: 1600 nM | GI50 [12]: 1600 nM | GI50 [13]: 1600 nM | GI50 [14]: 1600 nM
Compound: O=C1/C(=C/c2ccccc2O)CCC/C1=C\c1ccccc1O
GI50 (RPMI-7951): 1600 nM | GI50 (SVR): 2000 nM | GI50 (NSCLC): 1600 nM | GI50 [9]: 2000 nM | GI50 (HUVEC [10]): 2000 nM

IC50 (L1210): 300 nM | IC50 (B16): 200 nM
Compound: O=C1/C(=C/c2cccc(O)c2)CNC/C1=C\c1cccc(O)c1

IC50 (U-937): 1450 nM | IC50 (Jurkat E6.1): 1450 nM | IC50 (HCT-116 [19]): 1450 nM
Compound: O=C1/C(=C/c2ccc(O)c(O)c2)COC/C1=C\c1ccc(O)c(O)c1
IC50 (SAOS-2): 1450 nM
